Data taken from patent US20210045385A1, “PYRIDAZINONE-SUBSTITUTED KETOXIMES AS HERBICIDES” (FMC Corporation, priority 2018, published 2021).

How the values were obtained:
Format in all cases: in vivo
[1] = test system: ducksalad (Heteranhera limosa); test: Test B flooded paddy test, visual plant response rating; details: 250 g ai/ha, Flood, applied to paddy water, 2-leaf stage, evaluated after 13 to 15 days
How it was run: (§1)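 Compounds added straight into paddy water of pots flooded to 3 cm, with 2-leaf-stage plants of the four species; water level held throughout.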

rice (Oryza sativa) = test: as above; details: 250 g ai/ha, Flood, applied to paddy water, 2-leaf stage, evaluated after 13 to 15 days
How it was run: as §1

[2] = test system: sedge, umbrella (small-flower umbrella sedge, Cyperus difformis); test: as above; details: 250 g ai/ha, Flood, applied to paddy water, 2-leaf stage, evaluated after 13 to 15 days
How it was run: as §1

[3] = test system: barnyardgrass (Echinochloa crus-galli); test: as above; details: 250 g ai/ha, Flood, applied to paddy water, 2-leaf stage, evaluated after 13 to 15 days
How it was run: as §1

[4] = test system: pigweed (Amaranthus retroflexus); test: Test A preemergence, visual plant response rating; details: approx. 10 days
How it was run: (§2)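 Greenhouse evaluation, approx. 10 days post-spray. Soil: loam + sand. Postemergence stage: 1–2 leaves, height 2–10 cm. Vehicle: non-phytotoxic solvent blend with surfactant. Score: visual injury on a 0 (no effect) to 100 (complete control) scale.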

[5] = test system: ragweed (common ragweed, Ambrosia elatior); test: Test A preemergence, visual plant response rating; details: approx. 10 days
How it was run: as §2

[6] = test system: Italian ryegrass (Lolium multiflorum); test: Test A preemergence, visual plant response rating; details: approx. 10 days
How it was run: as §2

[7] = test system: foxtail, green (green foxtail, Setaria viridis); test: Test A preemergence, visual plant response rating; details: approx. 10 days
How it was run: as §2

[8] = test system: barnyardgrass (Echinochloa crus-galli); test: Test A preemergence, visual plant response rating; details: approx. 10 days
How it was run: as §2

kochia (Kochia scoparia) [9] = test: Test A preemergence, visual plant response rating; details: approx. 10 days
How it was run: as §2

[10] = test system: galium (catchweed bedstraw, Galium aparine); test: Test A postemergence, visual plant response rating; details: for Galium plant response rating (0 to 100 scale): 500 g ai/ha, postemergence, 0 is no effect, 100 is complete control; for Galium plant response rating: Postemergence, 125 g ai/ha, 0 to 100 scale (0 no effect, 100 complete control)
How it was run: as §2

[11] = test system: pigweed (Amaranthus retroflexus); test: Test A postemergence, visual plant response rating; details: for Pigweed plant response rating (0 to 100 scale): 500 g ai/ha, postemergence, 0 is no effect, 100 is complete control; for Pigweed plant response rating: Postemergence, 125 g ai/ha, 0 to 100 scale (0 no effect, 100 complete control)
How it was run: as §2

[12] = test system: blackgrass (Alopecurus myosuroides); test: Test A postemergence, visual plant response rating; details: for Blackgrass plant response rating (0 to 100 scale): 500 g ai/ha, postemergence, 0 is no effect, 100 is complete control; for Blackgrass plant response rating: Postemergence, 125 g ai/ha, 0 to 100 scale (0 no effect, 100 complete control)
How it was run: as §2

corn (Zea mays) = test: Test A postemergence, visual plant response rating; details: for Corn plant response rating (0 to 100 scale): 500 g ai/ha, postemergence, 0 is no effect, 100 is complete control; for Corn plant response rating: Postemergence, 125 g ai/ha, 0 to 100 scale (0 no effect, 100 complete control)
How it was run: as §2

[13] = test system: wheat (Triticum aestivum); test: Test A postemergence, visual plant response rating; details: for Wheat plant response rating (0 to 100 scale): 500 g ai/ha, postemergence, 0 is no effect, 100 is complete control; for Wheat plant response rating: Postemergence, 125 g ai/ha, 0 to 100 scale (0 no effect, 100 complete control)
How it was run: as §2

[14] = test system: ragweed (common ragweed, Ambrosia elatior); test: Test A postemergence, visual plant response rating; details: for Ragweed plant response rating (0 to 100 scale): 500 g ai/ha, postemergence, 0 is no effect, 100 is complete control; for Ragweed plant response rating: Postemergence, 125 g ai/ha, 0 to 100 scale (0 no effect, 100 complete control)
How it was run: as §2

[15] = test system: Italian ryegrass (Lolium multiflorum); test: Test A postemergence, visual plant response rating; details: for Ryegrass, Italian plant response rating (0 to 100 scale): 500 g ai/ha, postemergence, 0 is no effect, 100 is complete control; for Ryegrass, Italian plant response rating: Postemergence, 125 g ai/ha, 0 to 100 scale (0 no effect, 100 complete control)
How it was run: as §2

[16] = test system: foxtail, green (green foxtail, Setaria viridis); test: Test A postemergence, visual plant response rating; details: for Foxtail, Green plant response rating (0 to 100 scale): 500 g ai/ha, postemergence, 0 is no effect, 100 is complete control; for Foxtail, Green plant response rating: Postemergence, 125 g ai/ha, 0 to 100 scale (0 no effect, 100 complete control)
How it was run: as §2

[17] = test system: barnyardgrass (Echinochloa crus-galli); test: Test A postemergence, visual plant response rating; details: for Barnyardgrass plant response rating (0 to 100 scale): 500 g ai/ha, postemergence, 0 is no effect, 100 is complete control; for Barnyardgrass plant response rating: Postemergence, 125 g ai/ha, 0 to 100 scale (0 no effect, 100 complete control)
How it was run: as §2

kochia (Kochia scoparia) [18] = test: Test A postemergence, visual plant response rating; details: for Kochia plant response rating (0 to 100 scale): 500 g ai/ha, postemergence, 0 is no effect, 100 is complete control; for Kochia plant response rating: Postemergence, 125 g ai/ha, 0 to 100 scale (0 no effect, 100 complete control)
How it was run: as §2

SMILES | Plant response rating, Ducksalad (0 to 100 scale, 0 is no effect, 100 is complete control) [1] | Plant response rating, Rice (0 to 100 scale, 0 is no effect, 100 is complete control) (rice (Oryza sativa)) | Plant response rating, Sedge, Umbrella (0 to 100 scale, 0 is no effect, 100 is complete control) [2] | Plant response rating, Barnyardgrass (0 to 100 scale, 0 is no effect, 100 is complete control) [3] | Pigweed plant response rating (0 to 100 scale) ([4]; 125 g ai/ha Preemergence) | Pigweed plant response rating (0 to 100 scale) ([4]; 500 g ai/ha Preemergence) | Ragweed plant response rating (0 to 100 scale) ([5]; 125 g ai/ha Preemergence) | Ragweed plant response rating (0 to 100 scale) ([5]; 500 g ai/ha Preemergence) | Ryegrass, Italian plant response rating (0 to 100 scale) ([6]; 125 g ai/ha Preemergence) | Ryegrass, Italian plant response rating (0 to 100 scale) ([6]; 500 g ai/ha Preemergence) | Foxtail, Green plant response rating (0 to 100 scale) ([7]; 125 g ai/ha Preemergence) | Foxtail, Green plant response rating (0 to 100 scale) ([7]; 500 g ai/ha Preemergence) | Barnyardgrass plant response rating (0 to 100 scale) ([8]; 125 g ai/ha Preemergence) | Barnyardgrass plant response rating (0 to 100 scale) ([8]; 500 g ai/ha Preemergence) | Kochia plant response rating (0 to 100 scale) (kochia (Kochia scoparia) [9]; 125 g ai/ha Preemergence) | Kochia plant response rating (0 to 100 scale) (kochia (Kochia scoparia) [9]; 500 g ai/ha Preemergence) | Galium plant response rating (0 to 100 scale) [10] | Galium plant response rating [10] | Pigweed plant response rating (0 to 100 scale) [11] | Pigweed plant response rating [11] | other results
Cc1ccccc1/C(=N/OC(C)C)c1c(O)c(C)nn(C)c1=O [Compound 19] | 0 | 0 | 0 | 0 | 0 | 80 | 50 | 80 | 0 | 50 | 0 | 40 | 50 | 60 | 0 | 0 | 90 | 80 | 80 | 70 | Blackgrass plant response rating (0 to 100 scale) [12]: 50; Blackgrass plant response rating [12]: 10; Corn plant response rating (0 to 100 scale) (corn (Zea mays)): 0; Corn plant response rating (corn (Zea mays)): 0; Wheat plant response rating (0 to 100 scale) [13]: 0; Wheat plant response rating [13]: 0; Ragweed plant response rating (0 to 100 scale) [14]: 80; Ragweed plant response rating [14]: 70; Ryegrass, Italian plant response rating (0 to 100 scale) [15]: 30; Ryegrass, Italian plant response rating [15]: 20; Foxtail, Green plant response rating (0 to 100 scale) [16]: 50; Foxtail, Green plant response rating [16]: 10; Barnyardgrass plant response rating (0 to 100 scale) [17]: 60; Barnyardgrass plant response rating [17]: 20; Kochia plant response rating (0 to 100 scale) (kochia (Kochia scoparia) [18]): 30; Kochia plant response rating (kochia (Kochia scoparia) [18]): 10
Cc1ccccc1/C(=N\OC(C)C)c1c(O)c(C)nn(C)c1=O [Compound 20] | 0 | 0 | 0 | 0 | 80 | 100 | 30 | 90 | 30 | 70 | 0 | 60 | 20 | 70 | 0 | 0 | 90 | 80 | 70 | 60 | Blackgrass plant response rating (0 to 100 scale) [12]: 60; Blackgrass plant response rating [12]: 20; Corn plant response rating (0 to 100 scale) (corn (Zea mays)): 0; Corn plant response rating (corn (Zea mays)): 0; Wheat plant response rating (0 to 100 scale) [13]: 0; Wheat plant response rating [13]: 0; Ragweed plant response rating (0 to 100 scale) [14]: 80; Ragweed plant response rating [14]: 60; Ryegrass, Italian plant response rating (0 to 100 scale) [15]: 50; Ryegrass, Italian plant response rating [15]: 20; Foxtail, Green plant response rating (0 to 100 scale) [16]: 60; Foxtail, Green plant response rating [16]: 30; Barnyardgrass plant response rating (0 to 100 scale) [17]: 50; Barnyardgrass plant response rating [17]: 30; Kochia plant response rating (0 to 100 scale) (kochia (Kochia scoparia) [18]): 50; Kochia plant response rating (kochia (Kochia scoparia) [18]): 0
Cc1cccc(/C(=N\O)c2c(O)c(C)nn(C)c2=O)c1 [Compound 21] | 0 | 0 | 0 | 0 | 0 | 0 | 0 | 0 | 0 | 0 | 0 | 0 | 0 | 0 | 0 | 0 | 80 | 0 | 60 | 0 | Blackgrass plant response rating (0 to 100 scale) [12]: 0; Blackgrass plant response rating [12]: 0; Corn plant response rating (0 to 100 scale) (corn (Zea mays)): 0; Corn plant response rating (corn (Zea mays)): 0; Wheat plant response rating (0 to 100 scale) [13]: 0; Wheat plant response rating [13]: 0; Ragweed plant response rating (0 to 100 scale) [14]: 20; Ragweed plant response rating [14]: 0; Ryegrass, Italian plant response rating (0 to 100 scale) [15]: 20; Ryegrass, Italian plant response rating [15]: 0; Foxtail, Green plant response rating (0 to 100 scale) [16]: 0; Foxtail, Green plant response rating [16]: 0; Barnyardgrass plant response rating (0 to 100 scale) [17]: 0; Barnyardgrass plant response rating [17]: 0; Kochia plant response rating (0 to 100 scale) (kochia (Kochia scoparia) [18]): 10; Kochia plant response rating (kochia (Kochia scoparia) [18]): 0
CO/N=C(\c1cccc(C)c1C)c1c(O)c(C)nn(C)c1=O [Compound 22] | 0 | 0 | 0 | 0 | 30 | 90 | 50 | 90 | 10 | 30 | 0 | 0 | 0 | 0 | 10 | 10 | 60 | 60 | 50 | 30 | Blackgrass plant response rating (0 to 100 scale) [12]: 40; Blackgrass plant response rating [12]: 10; Corn plant response rating (0 to 100 scale) (corn (Zea mays)): 0; Corn plant response rating (corn (Zea mays)): 0; Wheat plant response rating (0 to 100 scale) [13]: 0; Wheat plant response rating [13]: 0; Ragweed plant response rating (0 to 100 scale) [14]: 50; Ragweed plant response rating [14]: 40; Ryegrass, Italian plant response rating (0 to 100 scale) [15]: 30; Ryegrass, Italian plant response rating [15]: 10; Foxtail, Green plant response rating (0 to 100 scale) [16]: 0; Foxtail, Green plant response rating [16]: 0; Barnyardgrass plant response rating (0 to 100 scale) [17]: 10; Barnyardgrass plant response rating [17]: 0; Kochia plant response rating (0 to 100 scale) (kochia (Kochia scoparia) [18]): 30; Kochia plant response rating (kochia (Kochia scoparia) [18]): 20
